The target of assay [1] is T1, acyl-CoA: cholesterol acyltransferase (ACAT) (Rattus norvegicus, UniProt Q7TQM4).
T1 construct: tissue preparation containing rat liver microsomes; from tissue; host or cells: rat liver microsomes
T1 sequence (Q7TQM4 1-524): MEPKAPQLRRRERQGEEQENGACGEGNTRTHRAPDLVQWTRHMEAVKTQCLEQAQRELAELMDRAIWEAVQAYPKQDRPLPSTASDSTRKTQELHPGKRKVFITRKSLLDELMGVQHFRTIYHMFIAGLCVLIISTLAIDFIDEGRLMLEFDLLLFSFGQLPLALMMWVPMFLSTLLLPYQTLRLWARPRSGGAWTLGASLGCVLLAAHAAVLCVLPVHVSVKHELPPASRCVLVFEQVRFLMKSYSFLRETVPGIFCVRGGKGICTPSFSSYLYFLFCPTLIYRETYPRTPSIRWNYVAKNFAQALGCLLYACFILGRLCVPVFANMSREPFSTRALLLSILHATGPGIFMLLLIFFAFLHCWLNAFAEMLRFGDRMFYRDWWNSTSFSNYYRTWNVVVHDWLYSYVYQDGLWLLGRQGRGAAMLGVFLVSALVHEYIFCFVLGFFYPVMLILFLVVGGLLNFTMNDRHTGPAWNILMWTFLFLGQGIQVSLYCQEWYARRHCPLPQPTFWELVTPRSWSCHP
Description: in vitro ACAT inhibition test in rat liver microsomes (LAI). The assay is classed as biochemical. As to the method:
The ability of representative compounds of the present invention to inhibit ACAT was measured using an in vitro test more fully described in F.J. Field and R.G. Salone, Biochemica et Biophysica Acta, 772:557-570 (1982). The test assesses the ability of a test compound to inhibit the acylation of cholesterol by oleic acid by measuring the amount of radiolabeled cholesterol oleate formed from radiolabeled oleic acid in a tissue preparation containing rat liver microsomes (designated LAI).
On the technique in general: Liver microsomes are a subcellular fraction often used to study metabolism.

Assay [2] relates to male Sprague-Dawley rats. In words: in vivo screen APCC in cholesterol-fed rats. The conditions noted are these: Rattus norvegicus, po, 30 mg/kg by gavage, high fat, high cholesterol diet overnight, versus vehicle and diet only, read-out: APCC percent change in total cholesterol (%TC) from control animals. The source says:
In an in vivo screen designated APCC, male Sprague-Dawley rats (200-225 g body weight) were randomly divided into treatment groups and dosed at 4 PM with either vehicle (CMC/Tween) or suspensions of invention compounds in vehicle. The normal chow diet was then replaced with a high fat, high cholesterol diet (5.5% peanut oil, 1.5% cholesterol, and 0.5% cholic acid). The rats consumed this diet ad libitum during the night and were sacrificed at 8 AM to obtain blood samples for cholesterol analysis using standard procedures. Statistical differences between mean cholesterol values for the same vehicle were determined using analysis of variance followed by Fisher's least significant test. The results of this trial for representative compounds of the present invention also appear in Table I as the percent change in total cholesterol (%TC) from control animals given vehicle and diet only. All compounds in the APCC test reported in Table 1 were administered by gavage at 30 mg/kg.

Setting [3] is: rat liver microsomes, formation of radiolabeled cholesterol oleate from radiolabeled oleic acid, read-out: LAI IC50.

In US5510379A, “Sulfonate ACAT inhibitors” (priority 1994, dated 1996) one finds IC50 and change in vivo data, which are given here for ten molecules.

pIC50: −log10 of the molar value. Read-outs that look alike come from different tables or passages of the source.

The term pIC50 denotes the negative decadic logarithm of the IC50, by convention in mol/L.

Take `CCCCCCCCCCCCNC(=O)CS(=O)(=O)Oc1c(C(C)C)cccc1C(C)C` [Example 3, 2,6-Diisopropylphenyl N-dodecyl carbamoylmethyl sulfonate]: the pIC50 in assay [1] (setting [3]) is 5.52. Further, in assay [2], the change in vivo at 30 mg/kg is -3%.

On to `CC(C)c1cccc(C(C)C)c1NC(=O)CS(=O)(=O)Oc1c(C(C)C)cccc1C(C)C` [Example 10, 2.6-Diisopropylphenyl N-(2,6-diisopropylphenyl)carbamoylmethylsulfonate], for which the pIC50 in assay [1] (setting [3]) was 7.57. The change in vivo at 30 mg/kg in assay [2] was -42%.

Regarding `CC(C)c1cccc(C(C)C)c1OS(=O)(=O)CC(=O)NC(c1ccccc1)c1ccccc1` [Example 4, 2,6-Diisopropylphenyl N-diphenylmethylcarbamoylmethyl sulfonate], the negative logarithm of the IC50 (pIC50) in assay [1] (setting [3]) is 5.74. Besides, the change in vivo at 30 mg/kg in assay [2] was -43%.

Regarding `CC(C)c1cc(C(C)C)c(OS(=O)(=O)CC(=O)N(Cc2ccccc2)Cc2ccccc2)c(C(C)C)c1` [Example 1, 2,4,6-Triisopropylphenyl N,N-dibenzylcarbamoylmethylsulfonate], the pIC50 in assay [1] (setting [3]) was below 5.30. In assay [2], the change in vivo at 30 mg/kg was -7%.

In the case of `CC(C)c1cc(C(C)C)c(NC(=O)CS(=O)(=O)Oc2c(C(C)C)cccc2C(C)C)c(C(C)C)c1` [Example 6], the pIC50 in assay [1] (setting [3]) was 5.78. Further, the change in vivo at 30 mg/kg in assay [2] is -31%.

`CC(C)c1cc(C(C)C)c(OS(=O)(=O)CC(=O)Nc2c(C(C)C)cccc2C(C)C)c(C(C)C)c1` [Example 9]: the negative-log IC50 (pIC50) in assay [1] (setting [3]) was 8.15. In assay [2], the change in vivo at 30 mg/kg is -61%.

As to `CC(C)c1cccc(C(C)C)c1OS(=O)(=O)CC(=O)O` [Example 5, 2,6-Diisopropylphenoxysulfonyl acetic acid], the pIC50 in assay [1] was below 4.30. Also, the change in vivo at 30 mg/kg in assay [2] was -31%.

For the molecule `CSc1ccc(CN(C(=O)CS(=O)(=O)Oc2c(C(C)C)cc(C(C)C)cc2C(C)C)C(C)C)cc1` [Example 7, 2,4,6-Triisopropylphenyl N-isopropyl-N-(4-thiomethylphenylmethyl)carbamoylmethyl sulfonate], the pIC50 in assay [1] (setting [3]) is 5.44. Moreover, the change in vivo at 30 mg/kg in assay [2] was -17%.

Consider `CC(C)c1cc(C(C)C)c(OS(=O)(=O)CC(=O)NC(c2ccccc2)c2ccccc2)c(C(C)C)c1` [Example 2, 2,4,6-Triisopropylphenyl N-diphenylmethylcarbamoylmethyl sulfonate], for which the pIC50 in assay [1] (setting [3]) is 6.10. In assay [2], the change in vivo at 30 mg/kg was -19%.

For the molecule `CC(C)c1cccc(C(C)C)c1OC(=O)CS(=O)(=O)Oc1c(C(C)C)cccc1C(C)C` [Example 8, 2,6-Diisopropylphenyl (2,6-diisopropylphenoxycarbonyl)methylsulfonate], the negative-log IC50 (pIC50) in assay [1] (setting [3]) is 5.82. Moreover, the change in vivo at 30 mg/kg in assay [2] is -21%.
